Assay results as given in paper PMC10590056, “Design and synthesis of cabotegravir derivatives bearing 1,2,3-triazole and evaluation of anti-liver cancer activity” (Frontiers in Pharmacology, 2023).
“And” between values parts separate entries of the source, which are not always exact repeats. Equal entries are not always repeated.

Experiments:
Assay type in all cases: cell-based
HepG2 cells = assay: MTT assay for cell proliferation and cytotoxicity, HepG2; set-up: key to Inhibitory rate: inhibition rate = 1 - mean A490 sample/mean A490 control (fraction); conditions: for IC50: HepG2, 48 h, MTT; for Inhibitory rate / ODtreated/ODcontrol: HepG2, fraction, per experiment; for Inhibition rate (16μM), 48 h, HepG2: preliminary screening, HepG2, 16 μM, mean±SD, unit not given
Experimental: (§1) HepG2, HeLa, MCF-7, and KYSE-30 cells were grown in a humidified incubator at 37°C with 5% CO2 in DMEM supplemented with 10% fetal bovine serum (FBS), […] streptomycin, and 100 U/mL penicillin.
(§2) When HepG2 cells reached 80% confluence, they were treated with 1 mL of trypsin and resuspended at a density of 10^5 cells/mL. Then, 100 μL of cell suspension was seeded into each well of a 96-well plate and incubated in a humidified atmosphere. The different concentrations of KJ-5 and KJ-12 (0, 1, 2, 4, 8, 16, and 32 μM) were added to each well, and the cells were further incubated for 48 h. Afterward, 20 μL of the MTT solution (5 mg/mL) was added to each well, and incubation was continued for another 4 h. The supernatant was discarded, and 200 μL of the DMSO solution was added to each well. The plate was shaken for 10 min in the dark. The absorbance values were measured at 490 nm using an enzyme-linked detector. The cell inhibition rate (%) was calculated using the following formula: (1-Mean A490 sample/Mean A490 control) × 100%.

HeLa cells = assay: MTT assay for cell proliferation, HeLa; set-up: key to Inhibitory rate: inhibition rate = 1 - mean A490 sample/mean A490 control (fraction); conditions: Hela; for Inhibitory rate / ODtreated/ODcontrol: fraction, per experiment; for Inhibition rate (16μM), 48 h, Hela: preliminary screening, mean±SD, unit not given
Experimental: as §1, §2

MCF-7 cells = assay: MTT assay for cell proliferation, MCF-7; set-up: key to Inhibitory rate / Inhibition rate: inhibition rate = 1 - mean A490 sample/mean A490 control (fraction); conditions: for Inhibition rate (16μM), 48 h, MCF-7: preliminary screening, MCF-7, 16 μM, mean±SD, unit not given
Experimental: as §1, §2

KYSE-30 cells = assay: MTT assay for cell proliferation, KYSE-30; set-up: key to Inhibitory rate: inhibition rate = 1 - mean A490 sample/mean A490 control (fraction); conditions: for Inhibitory rate: KYSE-30, given as fraction; for Inhibition rate (16μM), 48 h, KYSE-30: preliminary screening, KYSE-30, 16 μM, mean±SD, unit not given
Experimental: as §1, §2

[1] = MCF-7, fraction, per experiment
[2] = given as fraction, second of three experiments
[3] = given as fraction, third of three experiments
[4] = KYSE-30, first of three experiments
[5] = KYSE-30, second of three experiments
[6] = KYSE-30, third of three experiments

Compound	IC50 (HepG2 cells) [µM]	Inhibitory rate (HepG2 cells)	ODtreated/ODcontrol (HepG2 cells)	Inhibition rate (16μM), 48 h, HepG2 (HepG2 cells)	Inhibitory rate (HeLa cells)	ODtreated/ODcontrol (HeLa cells)	Inhibition rate (16μM), 48 h, Hela (HeLa cells)	Inhibitory rate (MCF-7 cells; [1])	ODtreated/ODcontrol (MCF-7 cells; [1])	Inhibitory rate (MCF-7 cells; [2])	Inhibition rate (MCF-7 cells; [3])	Inhibition rate (16μM), 48 h, MCF-7 (MCF-7 cells)	ODtreated/ODcontrol (MCF-7 cells; second of three experiments)	ODtreated/ODcontrol (MCF-7 cells; third of three experiments)	ODtreated/ODcontrol (KYSE-30 cells; [4])	Inhibitory rate (KYSE-30 cells; first of three experiments)	Inhibitory rate (KYSE-30 cells; second of three experiments)	Inhibitory rate (KYSE-30 cells; third of three experiments)	ODtreated/ODcontrol (KYSE-30 cells; [5])	ODtreated/ODcontrol (KYSE-30 cells; [6])	further results
COc1c2n(cc(C(=O)Nc3cccc(-c4cn(-c5cccc(C(F)(F)F)c5)nn4)c3)c1=O)C[C@H]1OC[C@H](C)N1C2=O [KJ-8]	9.41 ± 1.3	0.6351 and 0.626 and 0.6586	0.3649 and 0.374 and 0.3414	63.99±1.68	0.6574 and 0.6919 and 0.6249	0.3426 and 0.3081 and 0.3751	65.81±3.35	0.6331	0.3669	0.5745	0.558	58.85±3.95	0.4255	0.442	0.3962	0.6038	0.6049	0.5814	0.3951	0.4186	Inhibition rate (16μM), 48 h, KYSE-30 (KYSE-30 cells): 59.67±1.33
CCc1ccccc1-n1cc(-c2cccc(NC(=O)c3cn4c(c(OC)c3=O)C(=O)N3[C@@H](C)CO[C@@H]3C4)c2)nn1 [KJ-4]	15.1 ± 0.28	0.5128 and 0.512 and 0.5016	0.4872 and 0.488 and 0.4984	50.88±0.63	0.4763 and 0.5136 and 0.3886	0.5237 and 0.4864 and 0.6114	45.95±6.42	0.4901	0.5099	0.5179	0.4059	47.13±5.83	0.4821	0.5941	0.492	0.508	0.3924	0.4136	0.6076	0.5864	Inhibition rate (16μM), 48 h, KYSE-30 (KYSE-30 cells): 43.8±6.15
COc1c2n(cc(C(=O)Nc3cccc(-c4cn(-c5ccccc5)nn4)c3)c1=O)CC1OCC(C)N1C2=O (stereo not drawn) [KJ-16]	28.82 ± 0.1	0.4156 and 0.4284 and 0.3769	0.5844 and 0.5716 and 0.6231	40.70±2.68	0.3434 and 0.3651 and 0.3539	0.6566 and 0.6349 and 0.6461	35.41±1.09	0.4071	0.5929	0.3917	0.4369	41.19±2.3	0.6083	0.5631	0.634	0.366	0.4151	0.4118	0.5849	0.5882	Inhibition rate (16μM), 48 h, KYSE-30 (KYSE-30 cells): 39.76±2.74
COc1c2n(cc(C(=O)Nc3cccc(-c4cn(-c5cccc(Cl)c5)nn4)c3)c1=O)CC1OCC(C)N1C2=O (stereo not drawn) [KJ-17]	9.83 ± 0.85	0.6231 and 0.6364 and 0.626	0.3769 and 0.3636 and 0.374	62.85±0.70	0.5384 and 0.6161 and 0.6258	0.4616 and 0.3839 and 0.3742	59.34±4.79	0.5766	0.4234	0.4958	0.6004	55.76±5.48	0.5042	0.3996	0.4828	0.5172	0.6074	0.5319	0.3926	0.4681	Inhibition rate (16μM), 48 h, KYSE-30 (KYSE-30 cells): 55.22±4.84
COc1c2n(cc(C(=O)Nc3cccc(-c4cn(-c5ccccc5I)nn4)c3)c1=O)CC1OCC(C)N1C2=O (stereo not drawn) [KJ-15]	41.8 ± 1.22	0.3617 and 0.3472 and 0.3578	0.6383 and 0.6528 and 0.6422	35.56±0.75	0.2424 and 0.3317 and 0.2684	0.7576 and 0.6683 and 0.7316	28.08±4.59	0.3627	0.6373	0.3633	0.3314	35.25±1.83	0.6367	0.6686	0.5987	0.4013	0.4302	0.3963	0.5698	0.6037	Inhibition rate (16μM), 48 h, KYSE-30 (KYSE-30 cells): 40.93±1.83
COc1c2n(cc(C(=O)Nc3cccc(-c4cn(-c5ccc(C(F)(F)F)cc5)nn4)c3)c1=O)C[C@H]1OC[C@H](C)N1C2=O [KJ-10]	> 50	0.3299 and 0.3414 and 0.3063	0.6701 and 0.6586 and 0.6937	32.59±1.79	0.353 and 0.3445 and 0.3223	0.647 and 0.6555 and 0.6777	33.99±1.59	0.366	0.634	0.3141	0.2908	33.36±3.87	0.6859	0.7092	0.6507	0.3493	0.2142	0.2217	0.7858	0.7783	Inhibition rate (16μM), 48 h, KYSE-30 (KYSE-30 cells): 26.17±7.59
COc1c2n(cc(C(=O)Nc3cccc(-c4cn(-c5cccc(F)c5)nn4)c3)c1=O)C[C@H]1OC[C@H](C)N1C2=O [KJ-6]	7.63 ± 1.2	0.6124 and 0.6058 and 0.5961	0.3876 and 0.3942 and 0.4039	60.48±0.82	0.6049 and 0.5572 and 0.5217	0.3951 and 0.4428 and 0.4783	56.13±4.18	0.5139	0.4861	0.536	0.519	52.3±1.16	0.464	0.481	0.3817	0.6183	0.5213	0.4998	0.4787	0.5002	Inhibition rate (16μM), 48 h, KYSE-30 (KYSE-30 cells): 54.65±6.31
COc1c2n(cc(C(=O)Nc3cccc(-c4cn(-c5ccccc5C(F)(F)F)nn4)c3)c1=O)C[C@H]1OC[C@H](C)N1C2=O [KJ-1]	13.6 ± 1.09	0.48 and 0.4907 and 0.4342	0.52 and 0.5093 and 0.5658	46.83±3.00	0.456 and 0.4789 and 0.3414	0.544 and 0.5211 and 0.6586	44.98±3.26	0.4609	0.5391	0.4929	0.3773	44.37±5.97	0.5071	0.6227	0.5729	0.4271	0.3646	0.3875	0.6354	0.6125	Inhibition rate (16μM), 48 h, KYSE-30 (KYSE-30 cells): 39.31±3.16
